In EP4324461A1, “(E)-N-CINAMOYLAMINOALKANOLES WITH MELANOGENESIS INHIBITORY ACTIVITY” (UNIWERSYTET JAGIELLONSKI, priority 2022, dated 2024):
pIC50: −log10 of the molar value. Read-outs that look alike come from different tables or passages of the source. One block for each compound: values may come before it.

What was measured:
[1] = test system: S. typhimurium TA1535; test: Ames microplate test, TA1535;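 further: bacteria exposed to compound 90 min at 37 °C, then kept 48 h at 37 °C with indicator medium in 384-well plates, scoring wells that turned yellow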
Description: (§3) The study used the Ames microplate test (Ames MPF™ Penta 2 by Xenometrix, Allschwil, Switzerland). Growth medium, exposure medium, indicator medium, positive controls, hepatic microsomal fraction, NADP, glucose-6-phosphate, Salmonella typhimurium and Escherichia coli strains were components of the purchased experimental kit. Bacteria were grown overnight in growth medium. They were then exposed to the test compound at the appropriate concentration in exposure medium without or with the rat microsomal fraction S9 in 24-well plates for 90 min at 37 °C with shaking. Then, indicator medium was added to the wells and pipetted into 384-well plates, which were incubated for 48 hours at 37 °C without shaking. Results were assessed by counting the wells in which the medium turned yellow for each experimental condition.

[2] = test system: S. typhimurium TA98; test: Ames microplate test, TA98; format: cell-based, Salmonella typhimurium;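 further: reference level is the mean solvent-control yellow wells plus SD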
Description: (§1) Bacteria were grown overnight in growth medium.
(§2) Table 9. Ames microplate test results.

[3] = test system: Chinese hamster ovary cell line (CHO-K1); test: Genotoxicity in the micronucleus test in CHO-K1 cells; format: cell-based
[4] = test system: S. typhimurium TA100; test: Ames microplate test, TA100; format: cell-based, Salmonella typhimurium;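 further: reference level is the mean solvent-control yellow wells plus SD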
Description: as §1, §2

[5] = test system: E. coli WP2; test: Ames microplate test, E. coli WP2;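 further: bacteria treated 90 min at 37 °C in 24-well plates, then indicator medium dispensed to 384-well plates and incubated 48 h before yellow-well counting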
Description: as §3

[6] = test system: tyrosinase from mushroom; test: Inhibition of commercial mushroom tyrosinase (L-DOPA or L-tyrosine substrate); format: biochemical
Description: The following substrates were used for the enzymatic reaction: L-tyrosine and L-3,4-dihyroxyphenylalanine (L-DOPA). Both substrates were used in independent experiments. According to the literature, the use of L-DOPA enables the assessment of tyrosinase diphenolase activity, and L-tyrosine - the tyrosinase monophenolase activity. The determinations were performed in 96-well plates, in each well there was placed: 170 µL or 127.5 µL of 50 mM phosphate buffer (pH = 6.8) with tyrosinase (1U/well or 3U/well) and 10 µL of a solution of the tested compound in DMSO (the final concentration in the well was 500 µM, 250 µM or 125 µM). The negative control used 10 µL of pure solvent (DMSO). To initiate the reaction, an appropriate substrate was added: L-tyrosine (62.5 µL of solution in phosphate buffer) or L-DOPA (20 µL of solution in phosphate buffer). After a 25-minute incubation, the absorbance was measured at 475 nm using a microplate reader. The percentage of inhibition of tyrosinase activity was calculated using the formula: [(AC -AT)/AC] × 100, where AC - is the absorbance of the negative control, AT - is the absorbance of the sample containing the tested compound.

[7] = test system: S. typhimurium TA1537; test: Ames microplate test, TA1537; format: cell-based, Salmonella typhimurium;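 further: reference level is the mean solvent-control yellow wells plus SD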
Description: as §1, §2

[8] = Lipophilicity coefficient RM0 by reversed phase thin layer chromatography; format: physicochemical; details: RP-18 TLC, methanol / 100 mM phosphate buffer pH = 7.4
Description: Confirmation of the identity and purity of the obtained compounds consisted in the registration and interpretation of ^1H NMR and ^13C NMR spectra (the spectra were recorded using an ECZR 500 MHz (JEOL) series FT-NMR spectrophotometer), as well as the registration and interpretation of LC-MS spectra (the spectra were recorded using Acquita UPLC system (Waters) coupled with a Waters TQD mass spectrometer). The melting point was measured using the open capillary method in the IA9300 device (Electrothermal). The lipophilicity coefficient RM0 was determined by reversed phase thin layer chromatography. In the study, aluminum plates 20x20 cm covered with modified silica gel RP-18 F254 (Merck) were used as the solid phase. The mobile phase consisted of solutions of methanol and 100 mM phosphate buffer (pH = 7.4), characterized by a variable methanol content ranging from 95 to 65% (v/v). The tested compounds were dissolved in methanol to obtain solutions with a concentration of 1 mg/mL. Then, 5 µL of the solutions prepared in this way were transferred to the starting line on aluminum plates, which were then placed in chromatographic chambers previously saturated with mobile phase vapors for at least 1 hour. All activities, including the development of chromatograms, were carried out at room temperature. After developing the chromatograms to approximately 1-2 cm from the end of the plate, the plates were dried and then the distance traveled by the tested compounds was visualized under UV light (λ = 254 nm). The experiment was performed in duplicate for the specified conditions. For all samples, Rf was calculated according to the formula Rf = a/b, where a - the distance traveled by the tested compound, b - the distance traveled by the mobile phase. Then, the RM parameter was calculated for all samples according to the formula RM = log(1/Rf - 1), obtaining a linear relationship between the RM values and the methanol concentration in the mobile phase. The logP coefficient was also calculated using the following computer programs: ACD/ChemSketch 2020.1.2 and ChemDraw 20.0.0.41. Table 2. The physicochemical data of the compounds are presented below

[9] = test system: Chinese hamster ovary cell line (CHO-K1); test: Cytotoxicity in CHO-K1 cells (MTT) before the micronucleus test; format: cell-based; details: 24 hours
Description: The assay was performed using a Chinese hamster ovary cell line (CHO-K1) purchased from the American Type Culture Collection (ATCC). The cells were cultured in F-12K medium with the addition of 10% fetal bovine serum (FBS) and antibiotics (streptomycin/penicillin) in an incubator at 37 °C and 5% CO2 concentration). Before the actual micronucleus test, a cytotoxicity assessment was performed to ensure that the actual test was performed only at safe concentrations. For this purpose, cells were transferred to 96-well plates and incubated with the tested compounds for 24 hours. After this time, the MTT test was performed and cell viability was assessed in comparison to the control group (cells cultured with DMSO at the same concentration as in the case of the tested samples).

[10] = test system: B16-F10 murine melanoma cell line; test: Cytotoxicity in B16-F10 cells (MTT); format: cell-based; details: 48 h
Description: In order to determine safe doses of compounds for testing the inhibition of melanogenesis in a murine melanoma cell line, cytotoxicity tests were performed. Cytotoxicity was determined by the colorimetric method using MTT ([3-(4,5-dimethyl-2-thiazolyl)-2,5-diphenyl-2H-tetrazolium bromide, Sigma M5655). For this purpose, cells were transferred to 96-well plates in an amount of 5000/well. After 24 h of culture in an incubator in F 10-Ham medium with 1% FBS, the tested compounds at various concentrations were added to the wells together with fresh medium. DMSO was added to the medium in a negative control. The MTT test was performed after further culture for 48 h. Then the medium was removed and the formed formazan crystals were dissolved in DMSO. The absorbance was measured at 570 nm in a plate reader and the result was compared to the control (DMSO), which was 100%. The percentage of viability was calculated using the formula: [AT/AC^∗100], where AT is the absorbance of the test sample, AC - absorbance of the control sample. Table 3. Results of inhibiting the activity of monophenolase […] tyrosinase and cytotoxicity testing in B16F10 cells for the described compounds.

SMILES: CCC(O)CNC(=O)/C=C/c1ccc(Cl)cc1 (centres unmarked) [Compound A-67, (2E)-3-(4-chlorophenyl)-N-(2-hydroxybutyl)prop-2-enamide]
- Increase in the number of yellow wells compared to the reference level ([1]; 0.5 mM, +S9): 0.27
- Increase in the number of yellow wells compared to the reference level ([1]; 0.5 mM, without S9): 0.30
- Increase in the number of yellow wells compared to the reference level ([1]; 1.0 mM, +S9): 0.54
- Increase in the number of yellow wells compared to the reference level ([1]; 1.0 mM, without S9): 0.45
- Increase in the number of yellow wells compared to the reference level ([1]; 2.0 mM, +S9): 0.13
- Increase in the number of yellow wells compared to the reference level ([1]; 2.0 mM, without S9): 1.04
- Increase in the number of yellow wells compared to the reference level ([2]; 0.5 mM, +S9): 0.31
- Increase in the number of yellow wells compared to the reference level ([2]; 0.5 mM, without S9): 0.27
- Increase in the number of yellow wells compared to the reference level ([2]; 1.0 mM, +S9): 0.94
- Increase in the number of yellow wells compared to the reference level ([2]; 1.0 mM, without S9): 1.07
- Increase in the number of yellow wells compared to the reference level ([2]; 2.0 mM, +S9): 1.04
- Increase in the number of yellow wells compared to the reference level ([2]; 2.0 mM, without S9): 1.07
- DB (dicentric bridges in 1000 binucleate cells) ([3]; 100 µM): 3.3 ± 0.6
- MN (number of micronuclei in 1000 binucleate cells) ([3]; 100 µM): 12.0 ± 5.7
- NB (nuclear buds in 1000 binucleate cells) ([3]; 100 µM): 5.0 ± 2.8
- NDI (nuclear division index) ([3]; 100 µM): 1.58
- DB (dicentric bridges in 1000 binucleate cells) ([3]; 150 µM): 2.3 ± 0.6
- MN (number of micronuclei in 1000 binucleate cells) ([3]; 150 µM): 8.0 ± 2.8
- NB (nuclear buds in 1000 binucleate cells) ([3]; 150 µM): 5.5 ± 2.1
- NDI (nuclear division index) ([3]; 150 µM): 1.62
- DB (dicentric bridges in 1000 binucleate cells) ([3]; 200 µM): 3.0 ± 2.8
- MN (number of micronuclei in 1000 binucleate cells) ([3]; 200 µM): 6.5 ± 2.1
- NB (nuclear buds in 1000 binucleate cells) ([3]; 200 µM): 5.5 ± 0.7
- NDI (nuclear division index) ([3]; 200 µM): 1.62
- Increase in the number of yellow wells compared to the reference level ([4]; 0.5 mM, +S9): 0.78
- Increase in the number of yellow wells compared to the reference level ([4]; 0.5 mM, without S9): 1.53
- Increase in the number of yellow wells compared to the reference level ([4]; 1.0 mM, +S9): 0.64
- Increase in the number of yellow wells compared to the reference level ([4]; 1.0 mM, without S9): 0.93
- Increase in the number of yellow wells compared to the reference level ([4]; 2.0 mM, +S9): 0.31
- Increase in the number of yellow wells compared to the reference level ([4]; 2.0 mM, without S9): 0.80
- Increase in the number of yellow wells compared to the reference level ([5]; 0.5 mM, +S9): 0.83
- Increase in the number of yellow wells compared to the reference level ([5]; 0.5 mM, without S9): 0.50
- Increase in the number of yellow wells compared to the reference level ([5]; 1.0 mM, +S9): 0.42
- Increase in the number of yellow wells compared to the reference level ([5]; 1.0 mM, without S9): 1.00
- Increase in the number of yellow wells compared to the reference level ([5]; 2.0 mM, +S9): 1.42
- Increase in the number of yellow wells compared to the reference level ([5]; 2.0 mM, without S9): 0.83
- Tyrosinase inhibition with L-DOPA [%] ([6]; L-DOPA): 60.76±1.99% (500 µM)
- pIC50 ([6]; L-DOPA, read-out: Tyrosinase inhibition with L-DOPA, IC50): 3.63
- Tyrosinase inhibition with L-tyrosine [%] ([6]; L-tyrosine): 79.20±1.20% (500 µM)
- pIC50 ([6]; L-tyrosine, read-out: Tyrosinase inhibition with L-tyrosine, IC50): 3.78
- Increase in the number of yellow wells compared to the reference level ([7]; 0.5 mM, +S9): 1.00
- Increase in the number of yellow wells compared to the reference level ([7]; 0.5 mM, without S9): 0.00
- Increase in the number of yellow wells compared to the reference level ([7]; 1.0 mM, +S9): 1.33
- Increase in the number of yellow wells compared to the reference level ([7]; 1.0 mM, without S9): 0.18
- Increase in the number of yellow wells compared to the reference level ([7]; 2.0 mM, +S9): 0.00
- Increase in the number of yellow wells compared to the reference level ([7]; 2.0 mM, without S9): 0.82
- RM0 [8]: 2.46
- % Viability [mean] ([9]; 100 µM): 96.0%
- % Viability [mean] ([9]; 150 µM): 90.3%
- % Viability [mean] ([9]; 200 µM): 84.0%
- Cytotoxicity study in B16F10 cells % viability ([10]; 150 µM): 73.6%
- Cytotoxicity study in B16F10 cells % viability ([10]; 200 µM): 87.8%
- Cytotoxicity study in B16F10 cells % viability ([10]; 250 µM): 84.4%

- Tyrosinase inhibition with L-DOPA [%] ([6]; L-DOPA): 16.99±5.66% (500 µM)
- Tyrosinase inhibition with L-tyrosine [%] ([6]; L-tyrosine): 0.51±5.40% (500 µM)
- RM0 [8]: 2.04
SMILES: Cc1ccc(/C=C/C(=O)NCCCO)cc1 [H-410/21, (2E)-N-(3-hydroxypropyl)-3-(4-methylphenyl)prop-2-enamide]
- Cytotoxicity study in B16F10 cells % viability ([10]; 150 µM): 88.8%
- Cytotoxicity study in B16F10 cells % viability ([10]; 200 µM): 90.7%
- Cytotoxicity study in B16F10 cells % viability ([10]; 250 µM): 79.8%

- Tyrosinase inhibition with L-DOPA [%] ([6]; L-DOPA): 16.89±7.94% (500 µM)
- Tyrosinase inhibition with L-tyrosine [%] ([6]; L-tyrosine): 20.43±2.09% (500 µM)
- RM0 [8]: 2.27
SMILES: Cc1ccc(/C=C/C(=O)NCCCCO)cc1 [H-411/21, (2E)-N-(4-hydroxybutyl)-3-(4-methylphenyl)prop-2-enamide]
- Cytotoxicity study in B16F10 cells % viability ([10]; 150 µM): 50.6%
- Cytotoxicity study in B16F10 cells % viability ([10]; 200 µM): 34.9%
- Cytotoxicity study in B16F10 cells % viability ([10]; 250 µM): 41.2%
